In patent publication US11932845B2, “Microorganisms and methods for production of 4-hydroxybutyrate, 1,4-butanediol and related compounds” (priority 2012, dated 2024):
Where two headings read alike, the source gives them in different places.

What was measured:
Aldehyde dehydrogenase = Aldehyde dehydrogenase (ALD) assay in the reductive direction, cell extracts; details: cell extracts from MG1655 lacI^Q containing pZA33
Method: (§1) Alcohol (ADH) and aldehyde (ALD) dehydrogenase was assayed in the reductive direction using a procedure adapted from several literature sources (Durre et al., FEMS Microbiol. Rev. 17:251-262 (1995); Palosaari and Rogers, J. Bacteriol. 170:2971-2976 (1988) and Welch et al., Arch. Biochem. Biophys. 273:309-318 (1989). The oxidation of NADH is followed by reading absorbance at 340 nm every four seconds for a total of 240 seconds at room temperature. The reductive assays were performed in 100 mM MOPS (adjusted to pH 7.5 with KOH), 0.4 mM NADH, and from 1 to 50 μl of cell extract. The reaction is started by adding the following reagents: 100 μl of 100 mM acetaldehyde or butyraldehyde for ADH, or 100 μl of 1 mM acetyl-CoA or butyryl-CoA for ALD. The Spectrophotometer is quickly blanked and then the kinetic read is started. The resulting slope of the reduction in absorbance at 340 nm per minute, along with the molar extinction coefficient of NAD(P)H at 340 nM (6000) and the protein concentration of the extract, can be used to determine the specific activity.
(§2) Gene candidates for the 4-HB to BDO conversion pathway were next tested for activity when expressed in the E. coli host MG1655 lacI^Q. Recombinant strains containing each gene candidate expressed on pZA33 were grown in the presence of 0.25 mM IPTG for four hours at 37° C. to fully induce expression of the enzyme. Four hours after induction, cells were harvested and assayed for ADH and ALD activity as described above.

Alcohol dehydrogenase = Alcohol dehydrogenase (ADH) assay in the reductive direction, cell extracts; details: cell extracts from MG1655 lacI^Q containing pZA33
Method: as §1, §2

[1] = test system: alcohol dehydrogenase from Brevibacterium sp KU 1309; details: reduction of carbonyl compounds; cited from earlier work
[2] = test system: alcohol dehydrogenase from Brevibacterium sp KU; details: oxidation of alcohols, cited from earlier work; for Relative Activity: 2-phenylethanol taken as 100%
[3] = test system: L(+)-lactate dehydrogenase from A. eutrophus; details: compared with that on pyruvate; cited from earlier work
[4] = target: T1, L(+)-lactate dehydrogenase from rabbit muscle (Oryctolagus cuniculus, UniProt P13491); details: compared with that on pyruvate; cited from earlier work
T1 construct: host or cells: rabbit muscle

[5] = test system: D(−)-lactate dehydrogenase from L. leichmanii; details: compared with that on pyruvate; cited from earlier work
homoserine kinase = homoserine kinase (Escherichia coli, UniProt P00547); details: cited from earlier work
Sequence of homoserine kinase (P00547 whole entry): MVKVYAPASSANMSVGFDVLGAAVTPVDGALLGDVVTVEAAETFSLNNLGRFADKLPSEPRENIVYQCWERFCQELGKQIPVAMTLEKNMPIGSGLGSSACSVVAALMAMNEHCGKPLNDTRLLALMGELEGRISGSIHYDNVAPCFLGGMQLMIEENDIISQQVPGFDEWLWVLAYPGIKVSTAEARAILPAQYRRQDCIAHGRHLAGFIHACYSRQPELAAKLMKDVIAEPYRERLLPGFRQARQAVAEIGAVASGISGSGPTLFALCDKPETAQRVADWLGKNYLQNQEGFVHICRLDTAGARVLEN

aminotransferase = details: activity considered 100% on tyrosine; cited from earlier work
cytochrome-bd oxidases = details: cited from earlier work; for Km: pH 7
[6] = test system: 4-HB to BDO conversion pathway; experiment: Production of BDO from 10 mM 4-HB in recombinant E. coli strains; details: for BDO: 10 mM 4-HB, 24 hours, cat2 (0034) on pZA33
Method: For the BDO production experiments, cat2 from Porphyromonas gingivalis W83 (gene 0034) was included on pZA33 for the conversion of 4-HB to 4-HB-CoA, while the candidate dehydrogenase genes were expressed on pZE13. The host strain was MG1655 lacI^Q. Along with the alcohol and aldehyde dehydrogenase candidates, we also tested the ability of CoA-dependent succinic semialdehyde dehydrogenases (sucD) to function in this step, due to the similarity of the substrates. Cells were grown to an OD of about 0.5 in LB medium supplemented with 10 mM 4-HB, induced with 1 mM IPTG, and culture broth samples taken after 24 hours and analyzed for BDO as described below.
Finally, the construct was tested for participation in the conversion of 4-HB to BDO. Host strains were transformed with the pZA33-0020-0021 construct described and pZE13-0002, and compared to use of cat2 in BDO production using the aerobic procedure used above in FIG. 5.

## 0011: Gene ID 0011, adhE, E. coli, Aldehyde/alcohol dehydrogenase [Sample 0011]
Aldehyde dehydrogenase
  Aldehyde dehydrogenase, Substrate Acetyl-CoA: 0.0095 μmol min^−1 mg cell protein^−1
  Aldehyde dehydrogenase, Substrate Butyryl-CoA: 0.0069 μmol min^−1 mg cell protein^−1
Alcohol dehydrogenase
  Alcohol dehydrogenase, Substrate Acetaldehyde: 0.0093 μmol min^−1 mg cell protein^−1
  Alcohol dehydrogenase, Substrate Butyraldehyde: 0.0265 μmol min^−1 mg cell protein^−1

## CCCCCCCC=O [1-Octylaldehyde]
[1]
  Relative Activity: 87%

## CC(O)c1ccccc1 (stereo not drawn) [1-Phenylethanol]
[2]
  Relative Activity: 46 0%

## CCC(=O)C(=O)O [2-Oxobutyrate]
[3]
  Activity (%) of L(+)-lactate dehydrogenase from A. eutrophus: 107.0%
[4]
  Activity (%) of L(+)-lactate dehydrogenase from rabbit muscle: 18.6%
[5]
  Activity (%) of D(−)-lactate dehydrogenase from L. leichmanii: 1.1%

## CCCC(=O)C(=O)O [2-Oxovalerate]
[3]
  Activity (%) of L(+)-lactate dehydrogenase from A. eutrophus: 125.0%
[4]
  Activity (%) of L(+)-lactate dehydrogenase from rabbit muscle: 0.7%
[5]
  Activity (%) of D(−)-lactate dehydrogenase from L. leichmanii: 0.0%

## CC(C=O)c1ccccc1 (stereo not drawn) [2-Phenylpropionaldehyde]
[1]
  Relative Activity: 188%

## O=C(O)C(=O)CF [3-Fluoropyruvate]
[3]
  Activity (%) of L(+)-lactate dehydrogenase from A. eutrophus: 33.6%
[4]
  Activity (%) of L(+)-lactate dehydrogenase from rabbit muscle: 74.3%
[5]
  Activity (%) of D(−)-lactate dehydrogenase from L. leichmanii: 40.0%

## CC(C)C(=O)C(=O)O [3-Methyl-2-oxobutyrate]
[3]
  Activity (%) of L(+)-lactate dehydrogenase from A. eutrophus: 28.5%
[4]
  Activity (%) of L(+)-lactate dehydrogenase from rabbit muscle: 0.0%
[5]
  Activity (%) of D(−)-lactate dehydrogenase from L. leichmanii: 0.0%

## CCC(C)C(=O)C(=O)O (stereo not drawn) [3-Methyl-2-oxovalerate]
[3]
  Activity (%) of L(+)-lactate dehydrogenase from A. eutrophus: 5.3%
[4]
  Activity (%) of L(+)-lactate dehydrogenase from rabbit muscle: 0.0%
[5]
  Activity (%) of D(−)-lactate dehydrogenase from L. leichmanii: 0.0%

## OCCCc1ccccc1 [3-Phenylpropanol]
[2]
  Relative Activity: 135 0%
  Km: 33 µM

## CC(C)CC(=O)C(=O)O [4-Methyl-2-oxopentanoate]
[3]
  Activity (%) of L(+)-lactate dehydrogenase from A. eutrophus: 39.0%
[4]
  Activity (%) of L(+)-lactate dehydrogenase from rabbit muscle: 1.4%
[5]
  Activity (%) of D(−)-lactate dehydrogenase from L. leichmanii: 1.1%

## C[C@@H](CO)c1ccccc1 [(R)-2-Phenylpropanol]
[2]
  Relative Activity: 63 0%
  Km: 20 µM

## C[C@H](CO)c1ccccc1 [(S)-2-Phenylpropanol]
[2]
  Relative Activity: 156 0%
  Km: 157 µM

## CC(=O)c1ccccc1 [Acetophenone]
[1]
  Relative Activity: 0%

## N[C@H](CCO)C(=O)O [D-homoserine]
Homoserine kinase
  % kcat: 32%

## CCO [Ethanol]
[2]
  Relative Activity: 76 0%

## O=CC(=O)O [Glyoxylate]
[3]
  Activity (%) of L(+)-lactate dehydrogenase from A. eutrophus: 8.7%
[5]
  Activity (%) of D(−)-lactate dehydrogenase from L. leichmanii: 5.0%

## N[C@H](CO)CCO [L-2-amino-1,4-butanediol]
Homoserine kinase
  % kcat: 7.9%

## N[C@@H](CCCO)C(=O)O [L-2-amino-5-hydroxyvalerate]
Homoserine kinase
  % kcat: 9.9%
  Km: 1100 ± 500 µM

## N[C@@H](CC=O)C(=O)O [L-aspartate β-semialdehyde]
Homoserine kinase
  % kcat: 8.2%
  Km: 280 ± 20 µM

## CCOC(=O)[C@@H](N)CCO [L-homoserine ethyl ester]
Homoserine kinase
  % kcat: 74%

## CC(C)COC(=O)[C@@H](N)CCO [L-homoserine isobutyl ester]
Homoserine kinase
  % kcat: 84%

## CC(C)OC(=O)[C@@H](N)CCO [L-homoserine isopropyl ester]
Homoserine kinase
  % kcat: 74%

## COC(=O)[C@@H](N)CCO [L-homoserine methyl ester]
Homoserine kinase
  % kcat: 80%

## CCCOC(=O)[C@@H](N)CCO [L-homoserine n-propyl ester]
Homoserine kinase
  % kcat: 76%

## N[C@@H](CCO)C(=O)O [L-homoserine]
Homoserine kinase
  % kcat: 100%

## CCCCOC(=O)[C@@H](N)CCO [L-homserine n-butyl ester]
Homoserine kinase
  % kcat: 160%
  Km: 5800 ± 800 µM

## O=CCc1ccccc1 [Phenylacetaldehyde]
[1]
  Relative Activity: 100%

## CCCCO [Sample 1-Butanol, 1-Butanol]
[2]
  Relative Activity: 111 0%

## CCCCCCCCCCCCO [Sample 1-Dodecanol, 1-Dodecanol]
[2]
  Relative Activity: 68 0%

## CCCCCCCCO [Sample 1-Octanol, 1-Octanol]
[2]
  Relative Activity: 101 0%

## CC(C)O [Sample 2-Propanol, 2-Propanol]
[2]
  Relative Activity: 54 0%

## CC(C)C[C@H](N)C(=O)O [leucine]
aminotransferase
  activity: 25%

## CSCC[C@H](N)C(=O)O [methionine]
aminotransferase
  activity: 25%

## N[C@@H](Cc1ccccc1)C(=O)O [phenylalanine]
aminotransferase
  activity: 90%

## N[C@@H](Cc1c[nH]c2ccccc12)C(=O)O [tryptophan]
aminotransferase
  activity: 85%

## N[C@@H](Cc1ccc(O)cc1)C(=O)O [tyrosine]
aminotransferase
  activity: 100%

## Cytochrome bd-II
cytochrome-bd oxidases
  In vivo sp act: 70 ± 12 mol O2/mol cytochrome bd/s
  Vmax: 818 ± 75 mol O/mol cytochrome bd/s
cytochrome-bd oxidases; read-out: Km (O2) at pH 7
  Km: 2 ± 0.3 µM
cytochrome-bd oxidases; read-out: Km (UQ-H2) at pH 7
  Km: 250 ± 45 µM

B1: Cytochrome bo (protein, UniProt P0ABJ1 25-315; P0ABI8 1-663; P0ABJ3 1-204; P0ABJ6 1-109, looked up)
Cytochrome bo(3) ubiquinol … 1: CNSALLDPKGQIGLEQRSLILTAFGLMLIVVIPAILMAVGFAWKYRASNKDAKYSPNWSHSNKVEAVVWTVPILIIIFLAVLTWKTTHALEPSKPLAHDEKPITIEVVSMDWKWFFIYPEQGIATVNEIAFPANTPVYFKVTSNSVMNSFFIPRLGSQIYAMAGMQTRLHLIANEPGTYDGISASYSGPGFSGMKFKAIATPDRAAFDQWVAKAKQSPNTMSDMAAFEKLAAPSEYNQVEYFSNVKPDLFADVINKFMAHGKSMDMTQPEGEHSAHEGMEGMDMSHAESAH
Cytochrome bo(3) ubiquinol … 2: MFGKLSLDAVPFHEPIVMVTIAGIILGGLALVGLITYFGKWTYLWKEWLTSVDHKRLGIMYIIVAIVMLLRGFADAIMMRSQQALASAGEAGFLPPHHYDQIFTAHGVIMIFFVAMPFVIGLMNLVVPLQIGARDVAFPFLNNLSFWFTVVGVILVNVSLGVGEFAQTGWLAYPPLSGIEYSPGVGVDYWIWSLQLSGIGTTLTGINFFVTILKMRAPGMTMFKMPVFTWASLCANVLIIASFPILTVTVALLTLDRYLGTHFFTNDMGGNMMMYINLIWAWGHPEVYILILPVFGVFSEIAATFSRKRLFGYTSLVWATVCITVLSFIVWLHHFFTMGAGANVNAFFGITTMIIAIPTGVKIFNWLFTMYQGRIVFHSAMLWTIGFIVTFSVGGMTGVLLAVPGADFVLHNSLFLIAHFHNVIIGGVVFGCFAGMTYWWPKAFGFKLNETWGKRAFWFWIIGFFVAFMPLYALGFMGMTRRLSQQIDPQFHTMLMIAASGAVLIALGILCLVIQMYVSIRDRDQNRDLTGDPWGGRTLEWATSSPPPFYNFAVVPHVHERDAFWEMKEKGEAYKKPDHYEEIHMPKNSGAGIVIAAFSTIFGFAMIWHIWWLAIVGFAGMIITWIVKSFDEDVDYYVPVAEIEKLENQHFDEITKAGLKNGN
Cytochrome bo(3) ubiquinol … 3: MATDTLTHATAHAHEHGHHDAGGTKIFGFWIYLMSDCILFSILFATYAVLVNGTAGGPTGKDIFELPFVLVETFLLLFSSITYGMAAIAMYKNNKSQVISWLALTWLFGAGFIGMEIYEFHHLIVNGMGPDRSGFLSAFFALVGTHGLHVTSGLIWMAVLMVQIARRGLTSTNRTRIMCLSLFWHFLDVVWICVFTVVYLMGAM
Cytochrome bo(3) ubiquinol … 4: MSHSTDHSGASHGSVKTYMTGFILSIILTVIPFWMVMTGAASPAVILGTILAMAVVQVLVHLVCFLHMNTKSDEGWNMTAFVFTVLIIAILVVGSIWIMWNLNYNMMMH
cytochrome-bd oxidases
  Vmax: 225 mol O/mol cytochrome bd/s

B2: 0008n: Gene ID 0008 (native), sucD, Clostridium kluyveri DSM 555, Succinic semialdehyde dehydrogenase (CoA-dependent) (protein, UniProt P38947 1-453, looked up)
Succinate-semialdehyde …: MSNEVSIKELIEKAKVAQKKLEAYSQEQVDVLVKALGKVVYDNAEMFAKEAVEETEMGVYEDKVAKCHLKSGAIWNHIKDKKTVGIIKEEPERALVYVAKPKGVVAATTPITNPVVTPMCNAMAAIKGRNTIIVAPHPKAKKVSAHTVELMNAELKKLGAPENIIQIVEAPSREAAKELMESADVVIATGGAGRVKAAYSSGRPAYGVGPGNSQVIVDKGYDYNKAAQDIITGRKYDNGIICSSEQSVIAPAEDYDKVIAAFVENGAFYVEDEETVEKFRSTLFKDGKINSKIIGKSVQIIADLAGVKVPEGTKVIVLKGKGAGEKDVLCKEKMCPVLVALKYDTFEEAVEIAMANYMYEGAGHTAGIHSDNDENIRYAGTVLPISRLVVNQPATTAGGSFNNGFNPTTTLGCGSWGRNSISENLTYEHLINVSRIGYFNKEAKVPSYEEIWG
[6]; Aerobic
  BDO/OD: 47.6
  BDO: 255.8 µM
[6]; Anaerobic
  BDO/OD: 98.1
  BDO: 60.8 µM
[6]; Microaerobic
  BDO/OD: 41.9
  BDO: 127.9 µM

B3: 0013: Gene ID 0013, bdhB, Clostridium acetobutylicum ATCC 824, Butanol dehydrogenase II (protein, UniProt Q04945 1-390, looked up)
NADH-dependent butanol …: MVDFEYSIPTRIFFGKDKINVLGRELKKYGSKVLIVYGGGSIKRNGIYDKAVSILEKNSIKFYELAGVEPNPRVTTVEKGVKICRENGVEVVLAIGGGSAIDCAKVIAAACEYDGNPWDIVLDGSKIKRVLPIASILTIAATGSEMDTWAVINNMDTNEKLIAAHPDMAPKFSILDPTYTYTVPTNQTAAGTADIMSHIFEVYFSNTKTAYLQDRMAEALLRTCIKYGGIALEKPDDYEARANLMWASSLAINGLLTYGKDTNWSVHLMEHELSAYYDITHGVGLAILTPNWMEYILNNDTVYKFVEYGVNVWGIDKEKNHYDIAHQAIQKTRDYFVNVLGLPSRLRDVGIEEEKLDIMAKESVKLTGGTIGNLRPVNASEVLQIFKKSV
Alcohol dehydrogenase
  Alcohol dehydrogenase, Substrate Acetaldehyde: 0.0142 μmol min^−1 mg cell protein^−1
  Alcohol dehydrogenase, Substrate Butyraldehyde: 0.0130 μmol min^−1 mg cell protein^−1
